Values quoted from earlier work in US12453351B2, “Herbicide compatibility improvement” (Monsanto Technology LLC, priority 2005, dated 2025).

Conditions: at 25° C.

For `O=C(O)CNCP(=O)(O)O` [Glyphosate], the Solubility in water is given as 1.16 % by weight.
